The text below walks through data of ChEMBL document CHEMBL1150848, “Radiosumin B, an unusual dipeptide from the cyanobacterium Microcystis aeruginosa” (J Nat Prod, 2001).

Activity calls are given as the source filed them. No cut-off for these calls is given here.

Assay [1] in a line: Inhibition of trypsin.
In assay [2] the target is Plasminogen (Homo sapiens) (UniProt P00747). The assay can be described thus: Inhibition of plasmin.
Sequence of Plasminogen (Homo sapiens) (P00747 97-580 limits assumed): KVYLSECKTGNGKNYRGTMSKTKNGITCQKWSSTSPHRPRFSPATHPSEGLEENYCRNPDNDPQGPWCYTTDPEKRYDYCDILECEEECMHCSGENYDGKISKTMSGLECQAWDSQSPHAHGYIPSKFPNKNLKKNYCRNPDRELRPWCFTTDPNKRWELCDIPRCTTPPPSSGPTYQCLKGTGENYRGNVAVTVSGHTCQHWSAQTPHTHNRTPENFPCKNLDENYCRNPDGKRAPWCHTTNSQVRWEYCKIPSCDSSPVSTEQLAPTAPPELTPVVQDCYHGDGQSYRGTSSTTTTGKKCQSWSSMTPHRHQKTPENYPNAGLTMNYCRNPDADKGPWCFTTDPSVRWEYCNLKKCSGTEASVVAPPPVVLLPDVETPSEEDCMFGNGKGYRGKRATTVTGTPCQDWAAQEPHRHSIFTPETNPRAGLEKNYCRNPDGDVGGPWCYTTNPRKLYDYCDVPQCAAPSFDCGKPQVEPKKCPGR
Sequence of Plasminogen (Homo sapiens) (P00747 581-810 limits assumed): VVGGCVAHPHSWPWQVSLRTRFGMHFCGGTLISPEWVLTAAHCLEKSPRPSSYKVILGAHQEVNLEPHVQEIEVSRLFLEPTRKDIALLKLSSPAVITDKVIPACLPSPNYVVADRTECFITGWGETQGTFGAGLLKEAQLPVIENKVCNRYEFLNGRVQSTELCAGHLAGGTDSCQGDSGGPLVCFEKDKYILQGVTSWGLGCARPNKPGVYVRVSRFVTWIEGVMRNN

Turning to `CN[C@H]1C=C/C(=C/[C@H](NC(C)=O)C(=O)N[C@@H](/C=C2/C=C[C@H](NC(C)=O)CC2)C(=O)O)CC1`, the outcome in assay [1] and in assay [2] was Active.
